Measured values taken from paper PMC5706701, “Development of a homogenous high-throughput assay for inositol hexakisphosphate kinase 1 activity” (PLoS ONE, 2017).
Structures can show the parent of a compound that is named as a salt. Where two headings read alike, the source gives them in different places.

Target: T1, Human IP6K1 (Homo sapiens, UniProt Q92551)
T1 construct: GST (N, cleaved yes); made in house; host or cells: C43 E. coli, pGEX-6P-2
Assay: IP6K1 high-throughput screen of the Sigma LOPAC (ADP-Glo Max, single point);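 note: final compound concentration 10µM in 5% DMSO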
Type: biochemical

[1] = LOPAC single-point screen, ADP-Glo Max luminescence raw signal per well
[2] = LOPAC single-point screen, Z-score relative to plate average and StDev
[3] = LOPAC single-point screen, ADP-Glo Max raw signal per well
[4] = LOPAC single-point screen, Z-score against plate average and StDev
[5] = Sigma LOPAC single-point screen, ADP-Glo Max raw signal per well
[6] = Sigma LOPAC single-point screen, Z-score from plate average and StDev
[7] = LOPAC single-point screen, Z-score from plate average and StDev
[8] = LOPAC single-point screen, Z-score from raw signal with plate average and StDev

T1 sequence (Q92551 whole entry): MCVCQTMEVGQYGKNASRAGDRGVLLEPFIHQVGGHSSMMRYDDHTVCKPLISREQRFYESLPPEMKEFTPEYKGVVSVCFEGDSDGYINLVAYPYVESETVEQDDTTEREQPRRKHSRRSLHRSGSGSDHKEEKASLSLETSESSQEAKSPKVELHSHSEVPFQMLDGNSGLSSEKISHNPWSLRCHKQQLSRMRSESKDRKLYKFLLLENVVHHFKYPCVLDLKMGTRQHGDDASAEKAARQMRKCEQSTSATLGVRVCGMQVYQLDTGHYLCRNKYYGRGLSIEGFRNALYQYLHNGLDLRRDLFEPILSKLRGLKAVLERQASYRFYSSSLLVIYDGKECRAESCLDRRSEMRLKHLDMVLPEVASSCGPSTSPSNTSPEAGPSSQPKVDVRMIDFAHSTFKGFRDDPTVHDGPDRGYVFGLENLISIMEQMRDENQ

Compound: OCCN(CCO)c1nc(N2CCCCC2)c2nc(N(CCO)CCO)nc(N3CCCCC3)c2n1 [Dipyridamole]
- Raw Signal [1]: 52429
- Z-score [2]: -0.5561

Compound: N#C/C(=C\c1ccc(O)c(O)c1)C(=O)NCCCc1ccccc1 [Tyrphostin AG 555]
- Raw Signal [3]: 55783
- Z-score [4]: -0.04678

Compound: COC(=O)Nc1nc2ccc(C(=O)c3cccs3)cc2[nH]1 [Nocodazole]
- Raw Signal [5]: 59128
- Z-score [6]: 0.7955

Compound: Br.C=CCN1CCc2c(cc(O)c(O)c2Cl)C(c2ccccc2)C1 (racemic) [(±)-Chloro-APB hydrobromide]
- Raw Signal [5]: 58189
- Z-score [6]: 0.6137

Compound: CN1CCc2cc(Cl)c(O)cc2[C@@H](c2ccccc2)C1.Cl [R(+)-SCH-23390 hydrochloride]
- Raw Signal [3]: 55189
- Z-score [4]: 0.004461

Compound: CC1=NN=C(c2ccc(N)cc2)c2cc3c(cc2C1)OCO3.Cl [GYKI 52466 hydrochloride]
- Raw Signal [1]: 61943
- Z-score [7]: 1.376

Compound: NC(N)=NCCCCN=C(N)N [Arcaine sulfate]
- Raw Signal [3]: 57202
- Z-score [8]: -0.1252

Compound: NC(=O)c1cccc(N)c1 [3-aminobenzamide]
- Raw Signal [3]: 56496
- Z-score [8]: -0.2496

Compound: CCCN(CCC)C(=O)C(CCC(=O)O)NC(=O)c1ccccc1 (stereo not drawn) [Proglumide]
- Raw Signal [3]: 53192
- Z-score [8]: -0.2019

Compound: N[C@@H](CS(=O)O)C(=O)O [L-Cysteinesulfinic Acid]
- Raw Signal [3]: 57943
- Z-score [4]: 0.005266

Compound: C[N+](C)(C)CC#CCN1CCCC1=O [Oxotremorine methiodide]
- Raw Signal [1]: 63016
- Z-score [7]: 1.4488

Compound: CC[N+](CC)(CC)CC [Tetraethylammonium chloride]
- Raw Signal: 56416
- Z-score: 0.0762

Compound: CC1=C(/C=C/C(C)=C/C=C/C(C)=C/C(=O)O)C(C)(C)CCC1 [Retinoic acid]
- Raw Signal [1]: 50659
- Z-score [2]: -1.042

Compound: C[C@]12C[C@H](O)[C@H]3[C@@H](CCC4=CC(=O)CC[C@@]43C)[C@@H]1CC[C@@H]2C(=O)CO [Corticosterone]
- Raw Signal [3]: 55741
- Z-score [8]: -0.3826

Compound: NCCc1c[nH]c2ccc(O)cc12 [Serotonin hydrochloride]
- Raw Signal [5]: 60327
- Z-score [6]: 1.048

Compound: CN/C(=N\c1ccc(C2=NNC(=O)CC2C)cc1)NC#N (stereo not drawn) [SKF 94836]
- Raw Signal [3]: 55520
- Z-score [8]: -0.09788

Compound: COC(=O)C(N)Cc1ccc(Cl)cc1.Cl (racemic)
- Raw Signal [1]: 67025
- Z-score [7]: 1.605

Compound: O=C(O)C1=CC(=C(c2ccc(O)c(C(=O)O)c2)c2ccc(O)c(C(=O)O)c2)C=CC1=O [Aurintricarboxylic acid]
- Raw Signal [1]: 8090
- Z-score [2]: -8.775

Compound: CN1CCN(c2nc3cc(C(F)(F)F)ccc3n3cccc23)CC1.O=C(O)/C=C\C(=O)O [CGS-12066A maleate]
- Raw Signal [5]: 58347
- Z-score [6]: 0.6458

Compound: Nc1ncnc2c1nc(Sc1ccc(Cl)cc1)n2C1OC2COP(=O)(O)OC2C1O (stereo in doubt) [8-(4-Chlorophenylthio)-cAMP sodium]
- Raw Signal [1]: 54805
- Z-score [2]: -0.5474

Compound: CCCC1O[C@@H]2C[C@H]3[C@@H]4CCC5=CC(=O)C=C[C@]5(C)[C@H]4[C@@H](O)C[C@]3(C)[C@]2(C(=O)CO)O1 (stereo partly drawn) [Budesonide]
- Raw Signal [1]: 54430
- Z-score [2]: -0.6135

Compound: O=S(=O)(NCCNC/C=C/c1ccc(Br)cc1)c1cccc2cnccc12 [H-89]
- Raw Signal [1]: 53512
- Z-score [2]: -0.7752

Compound: C[N+](C)(C)CCCCCC[N+](C)(C)C [Hexamethonium bromide]
- Raw Signal [3]: 55496
- Z-score [4]: 0.06681

Compound: CCCCCCCCCC[Si](C)(C)CCC(=O)NC(Cc1ccc(C)cc1)c1ccccc1 (stereo not drawn) [Sandoz 58-035]
- Raw Signal [3]: 56427
- Z-score [8]: -0.2617

Compound: COCc1nc2c([nH]1)c(=O)n(C)c(=O)n2CC(C)C
- Raw Signal [3]: 51997
- Z-score [8]: -0.4027

Compound: N#C/C(=C\c1c[nH]c2ccccc12)C(=O)c1ccc(O)c(O)c1 [Tyrphostin AG 808]
- Raw Signal [3]: 55945
- Z-score [4]: -0.01531

Compound: O=C1N(c2ccccc2)c2ccccc2C1(Cc1ccncc1)Cc1ccncc1 [Linopirdine]
- Raw Signal [3]: 55241
- Z-score [4]: 0.1424

Compound: S=C=Nc1cccc(C2(N3CCCCC3)CCCCC2)c1 [Metaphit methanesulfonate]
- Raw Signal [5]: 56894
- Z-score [6]: 0.4201

Compound: CC(N)=O [Acetamide]
- Raw Signal [5]: 63288
- Z-score [6]: 0.9467

Compound: COCCOC(=O)C1=C(C)NC(C)=C(C(=O)OC(C)C)C1c1cccc([N+](=O)[O-])c1 (stereo not drawn) [Nimodipine]
- Raw Signal [3]: 55940
- Z-score [4]: 0.2599

Compound: CC(=O)O[C@H]1C[C@@H]2CC[C@@H]3[C@H](CC[C@@]4(C)[C@H]3C[C@H]([N+]3(C)CCCCC3)[C@@H]4OC(C)=O)[C@@]2(C)C[C@@H]1[N+]1(C)CCCCC1 [Pancuronium bromide]
- Raw Signal [5]: 59072
- Z-score [6]: 0.7861

Compound: COc1cc(Cc2cnc(N)nc2N)cc(OC)c1OC [Trimethoprim]
- Raw Signal [5]: 61776
- Z-score [6]: 1.118

Compound: O=C(O)[C@H]1C[C@H](C(=O)O)N1 (relative stereo) [trans-Azetidine-2,4-dicarboxylic acid]
- Raw Signal [3]: 57895
- Z-score [4]: -0.003188

Compound: COc1cc(OC)cc(C(CNc2ncnc3c2ncn3[C@@H]2O[C@H](CO)[C@@H](O)[C@H]2O)c2ccccc2C)c1 (stereo partly drawn) [DPMA]
- Raw Signal [3]: 54367
- Z-score [8]: -0.1625

Compound: CN(C)CCC=C1c2ccccc2COc2ccccc21 [Doxepin hydrochloride]
- Raw Signal [5]: 58742
- Z-score [6]: 0.726

Compound: CCN1CCC[C@H]1CNC(=O)c1cc(S(N)(=O)=O)ccc1OC [(-)-Sulpiride]
- Raw Signal [3]: 56775
- Z-score [4]: 0.1459

Compound: N#CC(C#N)=C(N)/C(C#N)=C/c1cc(O)c(O)c(O)c1 [Tyrphostin 51]
- Raw Signal [1]: 44032
- Z-score [2]: -2.33

Compound: CCN1C(=O)C=CC1=O [N-Ethylmaleimide]
- Raw Signal [3]: 55064
- Z-score [4]: -0.02093

Compound: N=C(N)NC(=O)Cc1c(Cl)cccc1Cl [Guanfacine hydrochloride]
- Raw Signal [3]: 54831
- Z-score [4]: -0.06825

Compound: O=[N+]([O-])c1cc2nc(O)c(O)nc2cc1[N+](=O)[O-] [DNQX]
- Raw Signal [1]: 50774
- Z-score [2]: -0.8922

Compound: Nc1nnc(-c2cccc(Cl)c2Cl)c(N)n1 [Lamotrigine]
- Raw Signal [3]: 53800
- Z-score [8]: -0.09973

Compound: COc1ccc(C(=O)NCc2cccnc2)cc1C(=O)NCc1cccnc1 [Picotamide]
- Raw Signal [3]: 56073
- Z-score [4]: 0.009557

Compound: NC(=O)c1cnccn1 [Pyrazinecarboxamide]
- Raw Signal [5]: 58526
- Z-score [6]: 0.4861

Compound: CN1CCc2cc3c(cc2[C@H]1[C@@H]1OC(=O)c2c1ccc1c2OCO1)OCO3 [(+)-Bicuculline]
- Raw Signal [1]: 66353
- Z-score [7]: 1.4865

Compound: Oc1ccc(-c2nc(-c3ccncc3)c(-c3ccc(F)cc3)[nH]2)cc1 [SB 202190]
- Raw Signal [3]: 58086
- Z-score [4]: 0.03045

Compound: Nc1ncnc2c1ncn2[C@@H]1O[C@H](C(=O)NC2CC2)[C@@H](O)[C@H]1O [5 -(N-Cyclopropyl)carboxamidoadenosine]
- Raw Signal [3]: 57761
- Z-score [4]: -0.02679

Compound: O=S(=O)(O)C1CCNCC1 [Piperidine-4-sulphonic acid]
- Raw Signal [3]: 54931
- Z-score [8]: -0.2123

Compound: Cl.O=c1[nH]oc2c1CCNC2 [THIP hydrochloride]
- Raw Signal [5]: 60339
- Z-score [6]: 0.8384
